Values of other authors in patent US20110070315A1 (priority 2009, published 2011).

System: hair loss

Cl.NCCCC[C@H](N)C(=O)O [L—Lysine HCl, L-Lysine HCl]
decreases hair loss: one half
